Results reported in patent publication US20260146035A1, “FUSED BICYCLIC COMPOUNDS AND THEIR USE AS MER AND AXL INHIBITORS” (DONG-A ST CO., LTD., priority 2022, published 2026).

Experiments:
human MER (528-end) = target: T1, human MER (528-end) (Homo sapiens, UniProt Q12866); experiment: HTRF kinase activity biochemical assay, MER; settings: 10 μM ATP, 30 minutes pre-incubation; read-out: HTRF MERTK IC50
T1 construct: human MER (528-end); purchased Camnabio, Japan
T1 sequence (Q12866 528-999 limits assumed): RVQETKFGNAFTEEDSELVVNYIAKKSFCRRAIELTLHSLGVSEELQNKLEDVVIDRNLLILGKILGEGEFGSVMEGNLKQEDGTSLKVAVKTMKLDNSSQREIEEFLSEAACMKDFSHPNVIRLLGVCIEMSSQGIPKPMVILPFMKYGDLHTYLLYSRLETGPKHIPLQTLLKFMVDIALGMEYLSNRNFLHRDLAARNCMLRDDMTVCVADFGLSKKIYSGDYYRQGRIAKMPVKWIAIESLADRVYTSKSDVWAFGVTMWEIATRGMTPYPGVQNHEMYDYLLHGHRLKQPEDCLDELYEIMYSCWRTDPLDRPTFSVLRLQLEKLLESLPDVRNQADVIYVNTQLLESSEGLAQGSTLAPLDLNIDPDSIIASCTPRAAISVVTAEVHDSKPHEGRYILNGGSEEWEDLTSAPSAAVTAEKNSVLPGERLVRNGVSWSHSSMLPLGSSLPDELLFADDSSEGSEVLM

human AXL (473-end) = target: T2, human AXL (473-end) (Homo sapiens, UniProt P30530); experiment: HTRF kinase activity biochemical assay, AXL; settings: 10 μM ATP, 30 minutes pre-incubation
T2 construct: human AXL (473-end); purchased SignalChem, Canada
T2 sequence (P30530 473-894 limits assumed): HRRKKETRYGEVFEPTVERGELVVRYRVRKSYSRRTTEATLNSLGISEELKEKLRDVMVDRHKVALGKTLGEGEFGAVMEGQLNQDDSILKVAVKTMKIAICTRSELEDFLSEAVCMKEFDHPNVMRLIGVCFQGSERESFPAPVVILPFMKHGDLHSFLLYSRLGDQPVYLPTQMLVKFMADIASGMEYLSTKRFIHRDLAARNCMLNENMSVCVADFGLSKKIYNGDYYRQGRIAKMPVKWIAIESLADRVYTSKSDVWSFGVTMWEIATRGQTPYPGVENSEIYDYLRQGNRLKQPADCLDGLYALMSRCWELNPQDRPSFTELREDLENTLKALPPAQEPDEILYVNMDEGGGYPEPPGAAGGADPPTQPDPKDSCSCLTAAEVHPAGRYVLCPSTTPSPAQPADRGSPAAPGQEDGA

human TYRO3 (455-end) = target: T3, human TYRO3 (455-end) (Homo sapiens, UniProt Q06418); experiment: HTRF kinase activity biochemical assay, TYRO3; settings: 10 μM ATP, 30 minutes pre-incubation; read-out: HTRF TYRO IC50
T3 construct: TYRO3 (455-end); purchased SignalChem, Canada
T3 sequence (Q06418 455-890 limits assumed): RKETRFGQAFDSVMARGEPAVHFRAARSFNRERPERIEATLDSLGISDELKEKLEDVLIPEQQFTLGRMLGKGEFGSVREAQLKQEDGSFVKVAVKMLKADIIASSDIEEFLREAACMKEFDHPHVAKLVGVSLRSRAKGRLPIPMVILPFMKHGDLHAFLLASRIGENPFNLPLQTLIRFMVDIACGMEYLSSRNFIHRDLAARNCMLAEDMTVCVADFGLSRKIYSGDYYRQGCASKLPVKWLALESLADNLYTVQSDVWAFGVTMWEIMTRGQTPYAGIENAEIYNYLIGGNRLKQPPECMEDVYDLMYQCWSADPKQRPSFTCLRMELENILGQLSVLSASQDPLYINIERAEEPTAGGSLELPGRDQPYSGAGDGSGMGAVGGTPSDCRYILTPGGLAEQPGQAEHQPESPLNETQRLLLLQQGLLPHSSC

| IC50 (human MER (528-end)) [nM] | IC50 (human AXL (473-end)) [nM] | IC50 (human TYRO3 (455-end)) [nM] | Structure (SMILES) |
| --- | --- | --- | --- |
| < 10 | < 10 | > 1000 | Nc1ncc(-c2ccc(F)nc2)cc1C(=O)N[C@H]1CCC[C@@H]1OCc1ccc(-c2ccc3c(c2)C[C@H](F)[C@@H]3N2CCN(CCO)CC2)cc1 (relative stereo) [Example 89, 6-amino-6′-fluoro-N-{(1S,2S)-2-[(4-{(1R*,2S*)-2-fluoro-1-[4-(2-hydroxyethyl)piperazin-1-yl]-2,3-dihydro-1H-inden-5-yl}phenyl)methoxy]cyclopentyl}[3,3′-bipyridine]-5-carboxamide] |
| < 10 | 10 to 100 | > 1000 | Nc1ncc(-c2ccc(F)nc2)cc1C(=O)N[C@H]1COC[C@@H]1OCc1ccc(-c2ccc3c(c2)CCC3N2CCN(CCO)CC2)cc1 (stereo partly drawn) [Example 20, 6-amino-6′-fluoro-N-{(3S,4R)-4-[(4-{1-[4-(2-hydroxyethyl)piperazin-1-yl]-2,3-dihydro-1H-inden-5-yl}phenyl)methoxy]oxolan-3-yl}[3,3′-bipyridine]-5-carboxamide] |
| < 10 | < 10 | 10 to 100 | Cn1cc(-c2cnc(N)c(C(=O)N[C@H]3CCC[C@@H]3OCc3ccc(-c4ccc5c(c4)CCC5N4CCN(CC(O)CO)CC4)cc3)c2)cn1 (stereo partly drawn) [Example 81, 2-amino-N-{(1S,2S)-2-[(4-{1-[4-(2,3-dihydroxypropyl)piperazin-1-yl]-2,3-dihydro-1H-inden-5-yl}phenyl)methoxy]cyclopentyl}-5-(1-methyl-1H-pyrazol-4-yl)pyridine-3-carboxamide] |
| < 10 | < 10 | 10 to 100 | Cc1ncc(-c2cnc(N)c(C(=O)N[C@H]3CCC[C@@H]3OCc3ccc(-c4ccc5c(c4)CC[C@@H]5N4CCN(CCO)CC4)cc3)c2)s1 [Example 172, 2-amino-N-{(1S,2S)-2-[(4-{(1S)-1-[4-(2-hydroxyethyl)piperazin-1-yl]-2,3-dihydro-1H-inden-5-yl}phenyl)methoxy]cyclopentyl}-5-(2-methyl-1,3-thiazol-5-yl)pyridine-3-carboxamide] |
| < 10 | < 10 | 10 to 100 | Cn1cc(-c2cnc(N)c(C(=O)N[C@H]3CCC[C@@H]3OCc3ccc(-c4ccc5c(c4)CCCN5C4CCN(CCO)CC4)cc3)c2)cn1 [Example 112, 2-amino-N-{(1S,2S)-2-[(4-{1-[1-(2-hydroxyethyl)piperidin-4-yl]-1,2,3,4-tetrahydroquinolin-6-yl}phenyl)methoxy]cyclopentyl}-5-(1-methyl-1H-pyrazol-4-yl)pyridine-3-carboxamide] |
| 10 to 100 | 100 to 1000 | > 1000 | Cn1cc(-c2cnc(N)c(C(=O)N[C@H]3CCC[C@@H]3OCc3ccc(-c4ccc5c(N6CCN(CCO)CC6)coc5c4)cc3)c2)cn1 [Example 95, 2-amino-N-{(1S,2S)-2-[(4-{3-[4-(2-hydroxyethyl)piperazin-1-yl]-1-benzofuran-6-yl}phenyl)methoxy]cyclopentyl}-5-(1-methyl-1H-pyrazol-4-yl)pyridine-3-carboxamide] |
| < 10 | < 10 | 100 to 1000 | Cn1cc(-c2cnc(N)c(C(=O)N[C@H]3CCC[C@@H]3OCc3ccc(-c4ccc5c(c4)CC(F)(F)[C@@H]5N4CCN(CCO)CC4)cc3)c2)cn1 [Example 65, 2-amino-N-{(1S,2S)-2-[(4-{(1R)-2,2-difluoro-1-[4-(2-hydroxyethyl)piperazin-1-yl]-2,3-dihydro-1H-inden-5-yl}phenyl)methoxy]cyclopentyl}-5-(1-methyl-1H-pyrazol-4-yl)pyridine-3-carboxamide] |
| < 10 | < 10 | 10 to 100 | Cn1cc(-c2cnc(N)c(C(=O)N[C@H]3CCC[C@@H]3OCc3ccc(-c4ccc5c(c4)C(C)(C)CCC5N4CCNCC4)cc3)c2)cn1 (stereo partly drawn) [Example 146, 2-amino-N-[(1S,2S)-2-({4-[8,8-dimethyl-5-(piperazin-1-yl)-5,6,7,8-tetrahydronaphthalen-2-yl]phenyl}methoxy)cyclopentyl]-5-(1-methyl-1H-pyrazol-4-yl)pyridine-3-carboxamide] |
| < 10 | < 10 | > 1000 | Nc1ncc(-c2cccnc2F)cc1C(=O)N[C@H]1CCC[C@@H]1OCc1ccc(-c2ccc3c(c2)CC[C@@H]3N2CCN(C(CO)CO)CC2)cc1 [Example 129, 6-amino-N-{(1S,2S)-2-[(4-{(1S)-1-[4-(1,3-dihydroxypropan-2-yl)piperazin-1-yl]-2,3-dihydro-1H-inden-5-yl}phenyl)methoxy]cyclopentyl}-2′-fluoro[3,3′-bipyridine]-5-carboxamide] |
| 10 to 100 | < 10 | > 1000 | CN(C)C1c2ccc(-c3ccc(CO[C@H]4CCC[C@@H]4NC(=O)c4cc(-c5cnn(C)c5)cnc4N)cc3)cc2CC1(C)C (stereo partly drawn) [Example 109, 2-amino-N-[(1S,2S)-2-({4-[1-(dimethylamino)-2,2-dimethyl-2,3-dihydro-1H-inden-5-yl]phenyl}methoxy)cyclopentyl]-5-(1-methyl-1H-pyrazol-4-yl)pyridine-3-carboxamide] |
| < 10 | < 10 | 10 to 100 | Cn1cc(-c2cnc(N)c(C(=O)N[C@H]3CCC[C@@H]3OCc3ccc(-c4ccc5c(c4)C(C)(C)CCC5N4CCN(CCO)CC4)cc3)c2)cn1 (stereo partly drawn) [Example 148, 2-amino-N-{(1S,2S)-2-[(4-{5-[4-(2-hydroxyethyl)piperazin-1-yl]-8,8-dimethyl-5,6,7,8-tetrahydronaphthalen-2-yl}phenyl)methoxy]cyclopentyl}-5-(1-methyl-1H-pyrazol-4-yl)pyridine-3-carboxamide] |
| < 10 | < 10 | 10 to 100 | Nc1ncc(-c2ccns2)cc1C(=O)N[C@H]1CCC[C@@H]1OCc1ccc(-c2ccc3c(c2)CC[C@@H]3N2CCN(CCO)CC2)cc1 [Example 174, 2-amino-N-{(1S,2S)-2-[(4-{(1S)-1-[4-(2-hydroxyethyl)piperazin-1-yl]-2,3-dihydro-1H-inden-5-yl}phenyl)methoxy]cyclopentyl}-5-(1,2-thiazol-5-yl)pyridine-3-carboxamide] |
| < 10 | < 10 | 100 to 1000 | Cc1cn(C2CCN(CCO)CC2)c2ncc(-c3ccc(CO[C@H]4CCC[C@@H]4NC(=O)c4cc(-c5cnn(C)c5)cnc4N)cc3)cc12 [Example 110, 2-amino-N-{(1S,2S)-2-[(4-{1-[1-(2-hydroxyethyl)piperidin-4-yl]-3-methyl-1H-pyrrolo[2,3-b]pyridin-5-yl}phenyl)methoxy]cyclopentyl}-5-(1-methyl-1H-pyrazol-4-yl)pyridine-3-carboxamide] |
| 10 to 100 | 100 to 1000 | > 1000 | Nc1ncc(C(F)(F)F)cc1C(=O)N[C@H]1COC[C@@H]1OCc1ccc(-c2ccc3c(ccn3C3CCN(CCO)CC3)c2)cc1 [Example 24, 2-amino-N-{(3S,4R)-4-[(4-{1-[1-(2-hydroxyethyl)piperidin-4-yl]-1H-indol-5-yl}phenyl)methoxy]oxolan-3-yl}-5-(trifluoromethyl)pyridine-3-carboxamide] |
| 10 to 100 | 100 to 1000 | > 1000 | CN(CCC(O)CO)C1CCc2cc(-c3ccc(CO[C@H]4CCC[C@@H]4NC(=O)c4cc(-c5ccc(F)nc5)cnc4N)cc3)ccc21 (stereo partly drawn) [Example 126, 6-amino-N-{(1S,2S)-2-[(4-{1-[(3,4-dihydroxybutyl)(methyl)amino]-2,3-dihydro-1H-inden-5-yl}phenyl)methoxy]cyclopentyl}-6′-fluoro[3,3′-bipyridine]-5-carboxamide] |
